Experiment [1] has as its target T1, MexL (Pseudomonas aeruginosa, UniProt Q9HXW2).
T1 sequence (Q9HXW2 1-212): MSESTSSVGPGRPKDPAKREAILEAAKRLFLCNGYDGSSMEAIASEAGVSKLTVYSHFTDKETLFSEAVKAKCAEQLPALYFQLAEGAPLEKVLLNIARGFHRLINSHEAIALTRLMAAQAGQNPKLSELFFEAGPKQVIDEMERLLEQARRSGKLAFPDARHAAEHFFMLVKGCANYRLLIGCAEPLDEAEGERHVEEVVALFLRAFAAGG
Briefly: thermal shift. Type of experiment: biochemical.

For experiment [2], the target named is T1, MexL. The experiment can be described thus: BLI. Type of experiment: binding.

As to `Oc1cc(Cl)ccc1Oc1ccc(Cl)cc1Cl` [TCS, triclosan], the “thermal shift (Tm decrease) and EMSA interference with DNA binding” value in experiment [1] was “these two antimicrobials both can interfere with the DNA-binding activity of MexL in EMSA”.

Regarding `Cn1c2cccc(=O)c-2nc2ccccc21` [PYO, pyocyanin], in experiment [2], the Kd was determined as 84.2 ± 1.8 µM.

As to `CN(C)[C@@H]1C(O)=C(C(N)=O)C(=O)[C@@]2(O)C(O)=C3C(=O)c4c(O)cccc4[C@@](C)(O)[C@H]3C[C@@H]12` [TET, tetracycline], in experiment [1], the “thermal shift (Tm decrease) and EMSA interference with DNA binding” value is “both TET and TCS also significantly reduce the Tm values of MexL (Fig. 6b), indicating their interaction with MexL”.

The values are drawn from PMC11865548 (Nature Communications, 2025).
